Tested on: 648629-189-R-J1-PDC spheroids with HUVEC/MSC, viability
Test: Anticancer human tumor 648629-189-R-J1-PDC patient-derived bladder carcinoma cell line growth inhibition [PI3K]
Conditions: for IC50: curve of first compound; for viability, T/C: stronger effect = lower value
Summary of the method: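 Spheroid viability read-out. Co-cultures contained the tumor line plus HUVEC and human MSCs. Each agent was paired with a PI3K inhibitor (inavolisib, alpelisib, duvelisib, copanlisib) across half-log dilutions starting at clinical Cmax, or at 10 microM when Cmax was unknown.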

[1] = second compound 0.00316 µM, first compound 0.0316 µM
[2] = second compound 0.00316 µM, first compound 0.1 µM
[3] = second compound 0.00316 µM, first compound 0.316 µM
[4] = second compound 0.00316 µM, first compound 1 µM
[5] = second compound 0.00316 µM, first compound 3.16 µM
[6] = second compound 0.00316 µM, first compound 10 µM
[7] = second compound 0.01 µM, first compound 0.0316 µM
[8] = second compound 0.01 µM, first compound 0.1 µM
[9] = second compound 0.01 µM, first compound 0.316 µM
[10] = second compound 0.01 µM, first compound 1 µM
[11] = second compound 0.01 µM, first compound 3.16 µM
[12] = second compound 0.01 µM, first compound 10 µM
[13] = second compound 0.0316 µM, first compound 0.0316 µM
[14] = second compound 0.0316 µM, first compound 0.1 µM
[15] = second compound 0.0316 µM, first compound 0.316 µM
[16] = second compound 0.0316 µM, first compound 1 µM
[17] = second compound 0.0316 µM, first compound 3.16 µM
[18] = second compound 0.0316 µM, first compound 10 µM
[19] = second compound 0.1 µM, first compound 0.0316 µM
[20] = second compound 0.1 µM, first compound 0.1 µM
[21] = second compound 0.1 µM, first compound 0.316 µM
[22] = second compound 0.1 µM, first compound 1 µM
[23] = second compound 0.1 µM, first compound 3.16 µM
[24] = second compound 0.1 µM, first compound 10 µM
[25] = second compound 0.316 µM, first compound 0.0316 µM
[26] = second compound 0.316 µM, first compound 0.1 µM
[27] = second compound 0.316 µM, first compound 0.316 µM
[28] = second compound 0.316 µM, first compound 1 µM
[29] = second compound 0.316 µM, first compound 3.16 µM
[30] = second compound 0.316 µM, first compound 10 µM
[31] = second compound 1 µM, first compound 0.0316 µM
[32] = second compound 1 µM, first compound 0.1 µM
[33] = second compound 1 µM, first compound 0.316 µM
[34] = second compound 1 µM, first compound 1 µM
[35] = second compound 1 µM, first compound 3.16 µM
[36] = second compound 1 µM, first compound 10 µM
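Also: spheroids exposed to agents for seven days before reading.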
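For viability, T/C in this document: percent of vehicle control luminescence where 100% = DMSO treated spheroids.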

Compound: Cn1ncc(Cl)c1-c1cc(C(=O)NC(CN)Cc2cccc(F)c2)sc1Cl (stereo unspecified) + CC(Nc1ccc2c(c1)OCCn1cc(N3C(=O)OCC3C(F)F)nc1-2)C(N)=O
- IC50 (second compound 0.00316 µM): > 10000 nM
- IC50 (second compound 0.01 µM): 766 nM
- IC50 (second compound 0.0316 µM): > 10000 nM
- IC50 (second compound 0.1 µM): 270 nM
- IC50 (second compound 0.316 µM): 209 nM
- IC50 (second compound 1 µM): 162 nM
- viability, T/C [1]: 97%
- viability, T/C [2]: 87.4%
- viability, T/C [3]: 50.5%
- viability, T/C [4]: 30.1%
- viability, T/C [5]: 20.2%
- viability, T/C [6]: 102%
- viability, T/C [7]: 88.8%
- viability, T/C [8]: 91%
- viability, T/C [9]: 56.1%
- viability, T/C [10]: 32.6%
- viability, T/C [11]: 17.5%
- viability, T/C [12]: 94.3%
- viability, T/C [13]: 98%
- viability, T/C [14]: 80.4%
- viability, T/C [15]: 55.1%
- viability, T/C [16]: 30.8%
- viability, T/C [17]: 19.4%
- viability, T/C [18]: 99.7%
- viability, T/C [19]: 85.3%
- viability, T/C [20]: 72.9%
- viability, T/C [21]: 47.4%
- viability, T/C [22]: 27.5%
- viability, T/C [23]: 14.8%
- viability, T/C [24]: 89%
- viability, T/C [25]: 79.9%
- viability, T/C [26]: 61.5%
- viability, T/C [27]: 47.5%
- viability, T/C [28]: 24%
- viability, T/C [29]: 15.7%
- viability, T/C [30]: 72.2%
- viability, T/C [31]: 56.2%
- viability, T/C [32]: 62.1%
- viability, T/C [33]: 37.3%
- viability, T/C [34]: 22.6%
- viability, T/C [35]: 13.2%
- viability, T/C [36]: 67%

Compound: CNC(=O)c1ccc(N2C(=S)N(c3ccc(C#N)c(C(F)(F)F)c3)C(=O)C2(C)C)cc1F + COc1c(OCCCN2CCOCC2)ccc2c3n(c(=NC(=O)c4cnc(N)nc4)nc12)CCN3
- IC50 (second compound 0.00316 µM): > 10000 nM
- IC50 (second compound 0.01 µM): > 10000 nM
- IC50 (second compound 0.0316 µM): > 10000 nM
- IC50 (second compound 0.1 µM): > 10000 nM
- IC50 (second compound 0.316 µM): < 31.6 nM
- IC50 (second compound 1 µM): < 31.6 nM
- viability, T/C [1]: 107%
- viability, T/C [2]: 103%
- viability, T/C [3]: 113%
- viability, T/C [4]: 116%
- viability, T/C [5]: 121%
- viability, T/C [6]: 97.7%
- viability, T/C [7]: 117%
- viability, T/C [8]: 108%
- viability, T/C [9]: 102%
- viability, T/C [10]: 103%
- viability, T/C [11]: 107%
- viability, T/C [12]: 81.1%
- viability, T/C [13]: 93.7%
- viability, T/C [14]: 92.2%
- viability, T/C [15]: 114%
- viability, T/C [16]: 101%
- viability, T/C [17]: 98.6%
- viability, T/C [18]: 84%
- viability, T/C [19]: 66%
- viability, T/C [20]: 73.9%
- viability, T/C [21]: 72.8%
- viability, T/C [22]: 74.8%
- viability, T/C [23]: 62.9%
- viability, T/C [24]: 67.5%
- viability, T/C [25]: 20.7%
- viability, T/C [26]: 26.3%
- viability, T/C [27]: 28.3%
- viability, T/C [28]: 25.5%
- viability, T/C [29]: 24.8%
- viability, T/C [30]: 25.9%
- viability, T/C [31]: 4.11%
- viability, T/C [32]: 3.82%
- viability, T/C [33]: 3.77%
- viability, T/C [34]: 4.37%
- viability, T/C [35]: 3.8%
- viability, T/C [36]: 3.34%

Compound: CC(Cn1ccc(-c2ccc(C#N)c(Cl)c2)n1)NC(=O)c1cc(C(C)O)[nH]n1 (stereo unspecified) + COc1c(OCCCN2CCOCC2)ccc2c3n(c(=NC(=O)c4cnc(N)nc4)nc12)CCN3
- IC50 (second compound 0.00316 µM): > 10000 nM
- IC50 (second compound 0.01 µM): > 10000 nM
- IC50 (second compound 0.0316 µM): > 10000 nM
- IC50 (second compound 0.1 µM): > 10000 nM
- IC50 (second compound 0.316 µM): < 31.6 nM
- IC50 (second compound 1 µM): < 31.6 nM
- viability, T/C [1]: 94.9%
- viability, T/C [2]: 92.4%
- viability, T/C [3]: 97.9%
- viability, T/C [4]: 96.4%
- viability, T/C [5]: 83.8%
- viability, T/C [6]: 73.9%
- viability, T/C [7]: 100%
- viability, T/C [8]: 105%
- viability, T/C [9]: 102%
- viability, T/C [10]: 92.7%
- viability, T/C [11]: 89.1%
- viability, T/C [12]: 74.3%
- viability, T/C [13]: 96.5%
- viability, T/C [14]: 93.5%
- viability, T/C [15]: 95.8%
- viability, T/C [16]: 90.4%
- viability, T/C [17]: 86.5%
- viability, T/C [18]: 70.8%
- viability, T/C [19]: 65.9%
- viability, T/C [20]: 64.1%
- viability, T/C [21]: 77.5%
- viability, T/C [22]: 65.5%
- viability, T/C [23]: 64%
- viability, T/C [24]: 61.5%
- viability, T/C [25]: 23%
- viability, T/C [26]: 18.7%
- viability, T/C [27]: 22.9%
- viability, T/C [28]: 23.2%
- viability, T/C [29]: 26.4%
- viability, T/C [30]: 21.3%
- viability, T/C [31]: 3.56%
- viability, T/C [32]: 3.29%
- viability, T/C [33]: 3.07%
- viability, T/C [34]: 3.97%
- viability, T/C [35]: 4.94%
- viability, T/C [36]: 2.75%

From PubChem BioAssay AID1963974 (Molecular Pharmacology Branch, DTP, NCI, 2024)
